Activity calls are given as the source filed them. No rule for the calls is given here.

Results on 84 compounds are retold here after ChEMBL document CHEMBL5303711, “ECBD screening data for assay EOS300108” (2023).

This data set in a line: Cytotoxicity activity against human HepG2 cells assessed by CellTiter-Glo luminescent cell viability assay. Format: toxicity, cell-based. On the set-up: assay stage confirmatory assay, source tissue liver. Particulars: HepG2 cells, read-out: IC50 relative.
For `COc1ccc(-c2noc(N3CCC(C(=O)N4CCN(c5ccccc5OC)CC4)CC3)n2)cc1`, the CC50 was 8 µM (active).

`CC(=O)N1CCCc2cc(S(=O)(=O)N3CCCC(C(=O)N4CCN(c5ccccc5)CC4)C3)ccc21` (centres undefined): the CC50 was 12.7 µM (inactive).

Consider `CCOc1ccc(S(=O)(=O)Nc2ccc3c(c2)N(C(C)=O)CCC3)cc1`, for which the CC50 was 6.4 µM (active).

`CCc1ccc(-c2cc3c(=O)n(CC(=O)NCCCN4CCN(CC)CC4)nc(C)n3n2)cc1`: the CC50 is 25.5 µM (inactive).

With `CCS(=O)(=O)N1CCc2ccc(NC(=O)Nc3cccc(C)c3)cc21`, the CC50 is 2.2 µM (active).

Consider `CCS(=O)(=O)N1CCc2ccc(NC(=O)Nc3cccc(F)c3)cc21`, for which the CC50 is 5.2 µM (active).

For `CCS(=O)(=O)N1CCc2ccc(NC(=O)Nc3cccc(C#N)c3)cc21`, the CC50 is 5.2 µM (active).

Regarding `CSc1ccc(NC(=O)Nc2ccc3c(c2)N(S(C)(=O)=O)CC3)cc1`, the CC50 is 8.1 µM (inactive).

As to `Cc1cccc(NC(=O)C2CCN(S(=O)(=O)c3cn(C(C)C)cn3)CC2)c1`, the CC50 is 8.8 µM (inactive).

`COc1ccc(-c2cc3c4nn(CC(=O)Nc5ccccc5)c(=O)n4ccn3n2)cc1`: the CC50 was 50 µM (inactive).

On to `COc1ccc(-c2cc3c4nn(CC(=O)Nc5cccc(OC)c5)c(=O)n4ccn3n2)cc1`, for which the CC50 is 50 µM (inactive).

As to `COc1cccc(N2CCN(C(=O)C3CCN(c4nc5cccnc5n(C)c4=O)CC3)CC2)c1`, the CC50 is 4.4 µM (active).

As to `CCN1CCN(c2cc3c(cc2S(=O)(=O)N2CCCCCC2)C(=O)Nc2ccccc2O3)CC1`, the CC50 was 10.9 µM (active).

In the case of `Cc1nc[nH]c1CNCCCc1ccc(C(C)C)cc1`, the CC50 is 13.6 µM (inactive).

Take `CC(=O)Nc1ccc(Nc2nc(C)cc(N3CCCC3)n2)cc1`: the CC50 was 10.2 µM (active).

Consider `CC(=O)N1c2ccc(S(=O)(=O)N3CCOCC3)cc2CC1C(=O)NCCN1CCCCCC1` (centres undefined), for which the CC50 is 50 µM (inactive).

For `CCn1c(=O)c(C(=O)Nc2cccc(OC)c2)c(O)c2ccccc21`, the CC50 is 2.4 µM (inactive).

Consider `COc1ccc(-c2cn3nc(N4CCCC(C(=O)NCCN5CCCC5)C4)sc3n2)cc1` (centres undefined), for which the CC50 is 5.1 µM (active).

In the case of `COc1ccc(OCC(=O)N2CCN(S(=O)(=O)c3ccc4c(c3)NC(=O)C(C)O4)CC2)cc1` (centres undefined), the CC50 is 5.8 µM (active).

Regarding `CSc1cccc(NC(=O)Nc2ccc3c(c2)N(S(C)(=O)=O)CC3)c1`, the CC50 is 5.4 µM (active).

Take `CCN(CC)CCCNC(=O)C1CCN(c2nc3ccccc3n(Cc3ccccc3)c2=O)CC1`: the CC50 was 6.4 µM (active).

Take `Cc1cccc(Cl)c1OCCN(C)CC1(C)COC1`: the CC50 was 50 µM (inactive).

In the case of `CCOc1ccccc1NC(=O)COc1cccc2c(=O)n(C)ccc12`, the CC50 is 1.4 µM (inactive).

Take `Cc1ccc(-c2cc3c(=O)n(CC#N)ccn3n2)cc1`: the CC50 was 0.3 µM (active).

Consider `CN1CCCC(CNc2ccc3cc(Cl)ccc3n2)C1` (centres undefined), for which the CC50 was 7.9 µM (active).

Take `Cc1cc(C)cc(C(=O)N2CCN(c3cc(=O)n(C(C)C)c(=O)n3C(C)C)CC2)c1`: the CC50 was 3.5 µM (active).

For the compound `CCOc1ccc(-n2ccnc(NCc3ccc(OC)c(OC)c3)c2=O)cc1`, the CC50 was 5.1 µM (active).

Consider `CCS(=O)(=O)N1CCc2ccc(NC(=O)Nc3ccc(Cl)cc3)cc21`, for which the CC50 was 14.3 µM (inactive).

On to `CCCCC(=O)Nc1ccc(Nc2nc(C)cc(N3CCOCC3)n2)cc1`, for which the CC50 is 10.1 µM (active).

For the compound `CCc1onc(C)c1C1CCCN1Cc1ccc(OC)c(O)c1` (centres undefined), the CC50 is 6.1 µM (active).

As to `Cc1cc(C)cc(NC(=O)N(C)CCc2scnc2C)c1`, the CC50 was 50 µM (inactive).

Consider `COc1ccc(C)cc1NC(=O)N1CCC(n2cnc3cc(F)ccc3c2=O)CC1`, for which the CC50 was 9.9 µM (active).

Consider `Cc1ccc(NC(=O)Nc2ccc3c(c2)N(S(C)(=O)=O)CC3)cc1`, for which the CC50 was 8.6 µM (inactive).

Take `CCc1ccc(NC(=O)Nc2ccc3c(c2)N(S(C)(=O)=O)CC3)cc1`: the CC50 was 2.3 µM (active).

Consider `CC(=O)N1CCCSc2ccc(S(=O)(=O)N3CCN(c4ccc(F)cc4)CC3)cc21`, for which the CC50 was 7.5 µM (active).

For the compound `Cc1ccc(NC(=O)Nc2ccc3c(c2)N(S(C)(=O)=O)CC3)cc1F`, the CC50 was 3.6 µM (inactive).

Take `COc1cc(-c2cc(C)no2)ccc1S(=O)(=O)Nc1cc(OC)c(OC)c(OC)c1`: the CC50 was 4.5 µM (active).

As to `CCS(=O)(=O)N1CCc2ccc(NC(=O)Nc3cccc(Cl)c3)cc21`, the CC50 is 2.6 µM (active).

Regarding `CCCCOc1cccc(C(=O)Nc2nc3c(s2)CN(C)CC3)c1`, the CC50 is 7.9 µM (active).

On to `CCCS(=O)(=O)N1CCc2ccc(NC(=O)Nc3cccc(OC)c3)cc21`, for which the CC50 is 4.9 µM (active).

As to `CCc1ccc(NC(=O)Nc2ccc3c(c2)N(S(=O)(=O)CC)CC3)cc1`, the CC50 is 2.4 µM (active).

Regarding `CCN1CCN(C(=O)C2CCCN(c3nn4cc(-c5ccc(OC)cc5)nc4s3)C2)CC1` (centres undefined), the CC50 is 12.8 µM (active).

Turning to `CC1Oc2ccc(S(=O)(=O)N3CCN(C(=O)c4ccc(Br)cc4)CC3)cc2NC1=O` (centres undefined), the CC50 is 4 µM (active).

As to `Cc1ccc(NC(=O)Nc2ccc3c(c2)N(S(C)(=O)=O)CC3)cc1C`, the CC50 was 16.8 µM (inactive).

For the compound `CCN(CC)CCNC(=O)C1CCN(c2nn3cc(-c4ccc(OC)cc4)nc3s2)CC1`, the CC50 is 2.7 µM (active).

For the compound `CC(NC(=O)N(C)CC1CCOCC1)c1ccccc1C(F)(F)F` (centres undefined), the CC50 was 50 µM (inactive).

As to `CC1Oc2ccc(S(=O)(=O)N3CCN(C(=O)c4ccc(Cl)cc4)CC3)cc2NC1=O` (centres undefined), the CC50 is 6.6 µM (active).

Consider `CCCC(=O)Nc1ccc(Nc2nc(C)cc(N(CC)CC)n2)cc1`, for which the CC50 was 4.2 µM (active).

For `CCN(CC)CCCNC(=O)C1CCN(c2ncc(-c3ccccc3)cn2)CC1`, the CC50 is 9.7 µM (active).

On to `COCC(=O)Nc1ccc(Nc2nc(C)cc(N3CCCC3)n2)cc1`, for which the CC50 is 3.6 µM (active).

Regarding `CCNc1cc(C)nc(Nc2ccc(NC(=O)CC(C)C)cc2)n1`, the CC50 is 11 µM (active).

For the compound `CCc1ccc(-c2cc3c(=O)n(CC(=O)NCCN(CC)CC)ncn3n2)cc1`, the CC50 is 6.2 µM (active).

On to `CS(=O)(=O)N1CCc2ccc(NC(=O)Nc3cccc(Cl)c3)cc21`, for which the CC50 is 1.3 µM (active).

`CC(C)Cn1c(=O)c2sccc2n2c(=O)n(CC(=O)Nc3ccc(F)cc3)nc12`: the CC50 was 50 µM (inactive).

For the compound `CCCS(=O)(=O)N1CCc2ccc(NC(=O)Nc3ccc(OCC)cc3)cc21`, the CC50 was 50 µM (inactive).

With `CS(=O)(=O)N1CCc2ccc(NC(=O)Nc3ccc(Br)cc3)cc21`, the CC50 was 3.2 µM (inactive).

In the case of `Cc1cccnc1C(NC(=O)CCOc1ccccc1)C1CC1` (centres undefined), the CC50 was 36.5 µM (inactive).

For the compound `Cc1cc(N(C)C)nc(N2CCN(C(=O)c3ccc(C(C)(C)C)cc3)CC2)n1`, the CC50 was 5.1 µM (active).

Regarding `Cc1cccc(NC(=O)Nc2ccc3c(c2)N(S(C)(=O)=O)CC3)c1`, the CC50 was 3.3 µM (active).

As for `CCc1ccc(-c2cc3c(=O)n(CC(=O)NCCCN4CCCC4)nc(C)n3n2)cc1`, the CC50 was 11.4 µM (active).

With `O=C1Nc2cc(Cl)ccc2Oc2ccc(S(=O)(=O)N3CCCC3)cc21`, the CC50 was 6.4 µM (active).

Regarding `CCN1CCN(CCCNC(=O)c2cccc(NC(=O)c3nnc(COc4ccccc4)s3)c2)CC1`, the CC50 is 6.9 µM (active).

For the compound `Cc1ccc(S(=O)(=O)NCCCNC(=O)c2c3c(nn2C)CCCC3)cc1`, the CC50 is 4.6 µM (active).

As to `CCc1cccc(NC(=O)Nc2ccc3c(c2)N(S(C)(=O)=O)CC3)c1`, the CC50 is 2.9 µM (active).

In the case of `COc1ccc2c(c1)C=C(C(=O)NCc1ccc(OC)c(OC)c1)CO2`, the CC50 is 6.3 µM (active).

In the case of `CC(=O)N1c2ccc(S(=O)(=O)N3CCC(C(=O)N4CC=C(c5ccccc5)CC4)CC3)cc2CC1C` (centres undefined), the CC50 is 6.8 µM (active).

Turning to `CCN(CC)CCNC(=O)C1CCCN(c2ncc(-c3ccc(C)cc3)cn2)C1` (centres undefined), the CC50 was 4.3 µM (active).

`CS(=O)(=O)N1CCc2ccc(NC(=O)Nc3ccc(Cl)cc3)cc21`: the CC50 was 3.9 µM (inactive).

In the case of `O=C(Nc1ccncc1)c1cccn(Cc2cccc(F)c2)c1=O`, the CC50 is 6.1 µM (active).

As for `CCCc1cc(C(=O)NCC2CN(C3CCN(C4CCC4)CC3)C(=O)CO2)n(C)n1` (centres undefined), the CC50 was 50 µM (inactive).

For `CC(=O)N1CCSc2ccc(S(=O)(=O)N3CCN(Cc4ccc5c(c4)OCO5)CC3)cc21`, the CC50 is 6.4 µM (active).

In the case of `O=C(c1csc(S(=O)(=O)N2CCC(C(=O)N3CCc4ccccc43)CC2)c1)N1CCCCCC1`, the CC50 is 10.6 µM (inactive).

In the case of `CCCS(=O)(=O)N1CCc2ccc(NC(=O)Nc3ccc(SC)cc3)cc21`, the CC50 was 18.2 µM (inactive).

For `COc1ccc(-c2cn3nc(N4CCC(C(=O)NCCCN5CCN(C)CC5)CC4)sc3n2)cc1`, the CC50 is 4.1 µM (active).

For the compound `COc1ccc(NC(=O)Nc2ccc3c(c2)N(S(C)(=O)=O)CC3)cc1Cl`, the CC50 is 10.5 µM (inactive).

In the case of `COc1ccccc1NC(=O)N1CCC(n2cnc3ccc(C)cc3c2=O)CC1`, the CC50 is 3.6 µM (active).

For the compound `CCCS(=O)(=O)N1CCc2ccc(NC(=O)Nc3cccc(C#N)c3)cc21`, the CC50 is 10.2 µM (active).

Regarding `CCC(=O)Nc1ccc(Nc2nc(C)cc(N(CC)CC)n2)cc1`, the CC50 was 4.5 µM (active).

Take `Cc1ccc(Nc2nc(N3CCN(CCO)CC3)nc3c2cnn3C)cc1Cl`: the CC50 was 4.8 µM (active).

In the case of `CN1CCN(c2cc3c(cc2S(=O)(=O)N2CCCCCC2)C(=O)Nc2ccccc2O3)CC1`, the CC50 was 11.5 µM (active).

Turning to `Cc1nn2c(ncc3c(=O)n(CCN(C)C)ccc32)c1-c1ccc(Cl)cc1`, the CC50 is 4 µM (active).

Turning to `CCc1nc(-c2cc(S(=O)(=O)N3CCCC(C(=O)N4CCC(C)CC4)C3)c(C)s2)no1` (centres undefined), the CC50 was 7.9 µM (active).

Take `CCCC(=O)Nc1ccc(Nc2nc(C)cc(N3CCCC3)n2)cc1`: the CC50 is 5.7 µM (active).

As for `COc1cccc(Nc2nc(N3CCN(C)CC3)nc3c2cnn3C)c1`, the CC50 was 14 µM (inactive).
